Results from US12227488B2, “Small molecule degraders of Helios and methods of use” (DANA-FARBER CANCER INSTITUTE, INC., priority 2018, dated 2025).

What was measured:
IKZF2 = assay: Cellular degradation assay, eGFP-IKZF2Δ fusion with mCherry reporter in Flp-In 293 cells; format: cell-based; conditions: 5 h incubation, n=1
Description: (§1) IKZF1Δ, IKZF2Δ, GSPT1 and SALL4 ZnF1-2 were subcloned into mammalian pcDNA5/FRT Vector (Ampicillin and Hygromycin B resistant) modified to contain MCS-eGFP-P2A-mCherry. […] Following 2-3 passage cycle, FACS (FACSAria™ II, BD) was used to enrich for cells expressing eGFP and mCherry. Cells stably expressing the IKZF1Δ, IKZF2Δ, GSPT1 or SALL4 Znf1-2 GFP fusions with mCherry reporter were seeded at 30-50% confluency in 384-well plates with 50 μL FluoroBrite™ DMEM media (Thermo Fisher Scientific, A18967) containing 10% FBS per well a day before compound treatment. Compound titrations were dispensed using a D300e Digital Dispenser (HP), normalized to 0.5% DMSO, and incubated with cells for 5 hours.
(§2) The resulting images were analyzed using CellProfiler™. A series of image analysis steps (‘image analysis pipeline’) was constructed. First, the red and green channels were aligned and cropped to target the middle of each well (to avoid analysis of heavily clumped cells at the edges), and a background illumination function was calculated for both red and green channels of each well individually and subtracted to correct for illumination variations across the 384-well plate from various sources of error. An additional step was then applied to the green channel to suppress the analysis of large auto fluorescent artifacts and enhance the analysis of cell specific fluorescence by way of selecting for objects under a given size, 30 A.U., and with a given shape, speckles. mCherry-positive cells were then identified in the red channel filtering for objects between 8-60 pixels in diameter and using intensity to distinguish between clumped objects. The green channel was then segmented into GFP positive and negative areas and objects were labeled as GFP positive if at least 40% of it overlapped with a GFP positive area. The fraction of GFP-positive cells/mCherry-positive cells in each well was then calculated, and the green and red images were rescaled for visualization.
(§3) The degradation assay was performed as described above. […] Degradation was measured after 5 h of compound treatment and the concentrations that lead to half degradation at 5 h (DC50,5 h) were calculated using the nonlinear fit variable slope model (GraphPad Software).

IKZF1 = molecular target: T1, IKZF1 (Homo sapiens, UniProt Q13422); assay: Cellular degradation assay, eGFP-IKZF1Δ fusion with mCherry reporter in Flp-In 293 cells; format: cell-based; conditions: 5 h incubation, n=1
T1 construct: expressed in transfected cells; host or cells: Flp-In 293
T1 sequence (Q13422 83-213 isoform Q13422-7 limits assumed): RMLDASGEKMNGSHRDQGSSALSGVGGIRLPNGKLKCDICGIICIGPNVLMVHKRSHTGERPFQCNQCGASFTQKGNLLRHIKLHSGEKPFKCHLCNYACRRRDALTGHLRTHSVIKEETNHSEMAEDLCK
T1 sequence (Q96SW2 whole entry partner, the tested form may be a part): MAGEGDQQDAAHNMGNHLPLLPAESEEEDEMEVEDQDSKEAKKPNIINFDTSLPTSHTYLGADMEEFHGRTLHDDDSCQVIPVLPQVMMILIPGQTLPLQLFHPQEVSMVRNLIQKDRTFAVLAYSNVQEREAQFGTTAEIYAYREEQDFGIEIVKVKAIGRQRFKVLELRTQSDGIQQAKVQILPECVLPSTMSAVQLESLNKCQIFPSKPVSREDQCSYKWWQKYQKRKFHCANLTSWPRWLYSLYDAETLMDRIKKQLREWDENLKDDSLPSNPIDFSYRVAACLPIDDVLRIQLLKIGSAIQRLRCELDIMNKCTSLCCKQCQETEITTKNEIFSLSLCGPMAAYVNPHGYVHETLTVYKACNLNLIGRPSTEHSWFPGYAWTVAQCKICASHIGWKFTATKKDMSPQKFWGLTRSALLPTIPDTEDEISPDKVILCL
T1 sequence (Q16531 2-1140 partner limits assumed): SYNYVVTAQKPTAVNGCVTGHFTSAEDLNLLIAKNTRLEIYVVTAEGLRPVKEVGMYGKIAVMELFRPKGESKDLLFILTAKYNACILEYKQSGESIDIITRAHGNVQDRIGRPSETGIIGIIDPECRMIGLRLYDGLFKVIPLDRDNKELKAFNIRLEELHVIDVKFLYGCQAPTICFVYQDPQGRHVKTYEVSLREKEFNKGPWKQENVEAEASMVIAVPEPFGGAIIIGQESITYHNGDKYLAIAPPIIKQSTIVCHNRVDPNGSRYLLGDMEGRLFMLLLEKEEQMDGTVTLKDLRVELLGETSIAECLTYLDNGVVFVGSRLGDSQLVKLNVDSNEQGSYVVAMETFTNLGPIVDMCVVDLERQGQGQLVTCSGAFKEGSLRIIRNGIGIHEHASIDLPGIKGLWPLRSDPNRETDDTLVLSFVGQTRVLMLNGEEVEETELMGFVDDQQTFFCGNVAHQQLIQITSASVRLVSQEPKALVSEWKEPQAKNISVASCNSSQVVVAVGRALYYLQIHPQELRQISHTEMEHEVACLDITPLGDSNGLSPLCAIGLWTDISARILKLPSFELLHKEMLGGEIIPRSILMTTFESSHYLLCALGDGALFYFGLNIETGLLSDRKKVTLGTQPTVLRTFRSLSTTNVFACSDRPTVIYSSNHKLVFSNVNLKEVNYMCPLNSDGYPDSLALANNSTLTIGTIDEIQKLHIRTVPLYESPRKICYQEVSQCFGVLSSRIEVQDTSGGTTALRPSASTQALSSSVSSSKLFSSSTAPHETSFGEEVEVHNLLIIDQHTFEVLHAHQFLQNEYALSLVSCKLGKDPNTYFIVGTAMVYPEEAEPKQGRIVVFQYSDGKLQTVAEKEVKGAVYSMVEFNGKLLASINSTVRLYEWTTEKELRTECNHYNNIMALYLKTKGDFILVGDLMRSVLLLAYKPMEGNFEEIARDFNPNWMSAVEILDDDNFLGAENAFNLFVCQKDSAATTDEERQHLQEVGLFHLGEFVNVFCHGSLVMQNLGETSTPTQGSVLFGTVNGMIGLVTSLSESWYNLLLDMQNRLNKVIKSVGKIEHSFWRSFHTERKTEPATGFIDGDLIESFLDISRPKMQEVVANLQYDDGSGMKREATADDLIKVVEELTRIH
Description: as §1, §2, §3

CRBN and Helios (IKZF2) = molecular target: T2, CRBN and Helios (IKZF2) (Homo sapiens, UniProt Q96SW2+Q9UKS7); assay: TR-FRET dimerization assay (CRBN-IKZF2 ternary complex formation); format: binding; conditions: n=1
T2 construct: His (N); Strep (N)
T2 sequence (Q96SW2 whole entry): as the sequence (Q96SW2 whole entry partner, the tested form may be a part) above
T2 sequence (Q9UKS7 whole entry): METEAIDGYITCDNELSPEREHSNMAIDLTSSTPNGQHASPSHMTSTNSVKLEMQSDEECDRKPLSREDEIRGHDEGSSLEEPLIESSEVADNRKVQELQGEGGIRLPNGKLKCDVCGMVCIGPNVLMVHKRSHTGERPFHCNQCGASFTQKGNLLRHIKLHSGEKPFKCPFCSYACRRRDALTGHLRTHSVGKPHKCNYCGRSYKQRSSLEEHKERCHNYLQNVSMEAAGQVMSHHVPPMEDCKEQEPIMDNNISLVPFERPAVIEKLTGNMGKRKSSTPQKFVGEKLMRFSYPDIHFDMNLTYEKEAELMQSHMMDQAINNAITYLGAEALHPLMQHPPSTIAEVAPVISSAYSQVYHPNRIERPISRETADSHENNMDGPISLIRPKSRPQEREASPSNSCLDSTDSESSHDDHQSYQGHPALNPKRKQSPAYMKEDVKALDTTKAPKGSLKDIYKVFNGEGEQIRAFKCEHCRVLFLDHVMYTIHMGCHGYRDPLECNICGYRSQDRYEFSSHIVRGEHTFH
Description: A focused library of imide analogs was synthesized and assessed for their ability to induce dimerization between CRBN and Helios in a time-resolved fluorescence energy transfer (TR-FRET) assay (FIG. 1A).
Prior to TR-FRET measurements being conducted, the reactions were incubated for 15 min at rt. […] The TR-FRET signal of each data point was extracted by calculating the 520/490 nm ratios. Data from single measurements (n=1), each calculated as an average of at least three technical replicates per well per experiment are presented in Table 1.
BODIPY-labeled CRBN in complex with Damage Specific DNA Binding Protein 1 (DDB1) harboring an internal deletion of the flexible BPB propeller (DDB1AB-CRBN) and in vitro biotinylated IKZF2 were treated with increasing concentrations of the indicated compounds in the presence of tracer amounts of Terbium-Streptavidin (Tb-SA). Compound-induced recruitment of IKZF2 to CRBN was quantified following the 520/490 TR-FRET ratio using a PHERAstar® plate reader (BMG) utilizing two synchronized PMTs to reduce background.

[1] = compound concentration 2.00E−05
[2] = compound concentration 2.00E−06
[3] = compound concentration 2.00E−07
[4] = compound concentration 6.6667E−05
[5] = compound concentration 6.6667E−06
[6] = compound concentration 6.6667E−07 (667 nM)

SMILES | IKZF2 GFP/RFP Relative Abundance (IKZF2; [1]) | IKZF2 GFP/RFP Relative Abundance (IKZF2; [2]) | IKZF2 GFP/RFP Relative Abundance (IKZF2; [3]) | IKZF1 GFP/RFP Relative Abundance (IKZF1; [1]) | IKZF1 GFP/RFP Relative Abundance (IKZF1; [2]) | IKZF1 GFP/RFP Relative Abundance (IKZF1; [3]) | TR-FRET-IKZF2 (Normalized to CC-885) (CRBN and Helios (IKZF2); [4]) | TR-FRET-IKZF2 (Normalized to CC-885) (CRBN and Helios (IKZF2); [5]) | TR-FRET-IKZF2 (Normalized to CC-885) (CRBN and Helios (IKZF2); [6])
Cc1ccc(NC(=O)NCc2cccc(OC3=CC(=O)N(C4CCC(=O)NC4=O)C3=O)c2)cc1Cl (stereo not drawn) [Compound 64, 1-(3-chloro-4-methylphenyl)-3-(3-((1-(2,6-dioxopiperidin-3-yl)-2,5-dioxo-2,5-dihydro-1H-pyrrol-3-yl)oxy)benzyl)urea] | 1.087 | 1.038 | 1.061 | 1.154 | 1.077 | 1.122 | 0.030 | 0.025 | 0.021
Cc1cc(CNC(=O)NCc2cccc(NC3=CC(=O)N(C4CCC(=O)NC4=O)C3=O)c2)ccc1Cl (stereo not drawn) [Compound 82, 1-(4-chloro-3-methylbenzyl)-3-(3-((1-(2,6-dioxopiperidin-3-yl)-2,5-dioxo-2,5-dihydro-1H-pyrrol-3-yl)amino)benzyl)urea] | 0.158 | 0.220 | 0.293 | 0.085 | 0.085 | 0.069 | 0.999 | 0.975 | 0.838
Cc1ccc(NC(=O)NC(CC(=O)N(C)C)c2cccc(NC3=CC(=O)N(C4CCC(=O)NC4=O)C3=O)c2)cc1Cl (stereo not drawn) [Compound 76, 3-(3-(3-chloro-4-methylphenyl)ureido)-3-(3-((1-(2,6-dioxopiperidin-3-yl)-2,5-dioxo-2,5-dihydro-1H-pyrrol-3-yl)amino)phenyl)-N,N-dimethylpropanamide] | 0.027 | 0.036 | 0.032 | 0.103 | 0.069 | 0.107 | 1.961 | 1.657 | 1.577
O=C1CCC(N2C(=O)C=C(Nc3cccc(CNC(=O)Nc4ccccc4)c3)C2=O)C(=O)N1 (stereo not drawn) [Compound 119, 1-(3-((1-(2,6-dioxopiperidin-3-yl)-2,5-dioxo-2,5-dihydro-1H-pyrrol-3-yl)amino)benzyl)-3-phenylurea] | 0.392 | 0.516 | 0.544 | 0.055 | 0.079 | 0.101 | 0.817 | 0.671 | 0.629
Cc1ccc(NC(=O)NCc2cc(NC3=CC(=O)N(C4CCC(=O)NC4=O)C3=O)ccc2OC(=O)N(C)C)cc1Cl (stereo not drawn) [Compound 95, 2-((3-(3-chloro-4-methylphenyl)ureido)methyl)-4-((1-(2,6-dioxopiperidin-3-yl)-2,5-dioxo-2,5-dihydro-1H-pyrrol-3-yl)amino)phenyl Dimethylcarbamate] | 1.070 | 1.058 | 1.029 | 0.944 | 0.904 | 0.960 | 0.124 | 0.109 | 0.094
Cc1ccc(CNC(=O)Cc2cccc(NC3=CC(=O)N(C4CCC(=O)NC4=O)C3=O)c2)cc1Cl (stereo not drawn) [Compound 123, N-(3-chloro-4-methylbenzyl)-2-(3-((1-(2,6-dioxopiperidin-3-yl)-2,5-dioxo-2,5-dihydro-1H-pyrrol-3-yl)amino)phenyl)acetamide] | 0.065 | 0.093 | 0.078 | 0.083 | 0.057 | 0.092 | 1.234 | 1.087 | 0.960
